Tests used:
HEK293T cells [1] = experiment: HPLC of perchlorate extracted NAD+ from HEK293T cells; assay type: cell-based; conditions: 10 nM FK866, 16 hours
Experimental: FIG. 6A is a set of three HPLC spectra from 10 μM purified NAD^+ standard compared to perchlorate extracted NAD^+ from HEK293T cells treated with 0 nM (middle) or 10 nM (bottom) FK866 for 16 hours. Note that NAD^+ is recovered from untreated cells while it is depleted in FK866 treated cells.

HEK293T cells [2] = experiment: NAD+ depletion by FK866 in cells expressing cytoplasmic sensor, live microscopy; assay type: cell-based
Experimental: (§1) Localization sequences were used to direct the sensor to the nucleus, cytoplasm, and mitochondria (FIG. 15A and FIG. 25A, 25B, 25C). […] Mammalian cells predominantly rely on the NAMPT-dependent salvage pathway for NAD+ biosynthesis (Revollo et al, 2004 supra), and presumably all subcellular compartments would be affected by NAMPT inhibition. To test this idea, clonal HEK293T lines stably expressing the localized sensors or their corresponding cpVenus control were generated. Cells were treated with FK866, a potent inhibitor of NAMPT, and NAD+ depletion in different compartments was monitored by live flow cytometry (FIG. 15B). FK866 increased sensor fluorescence in all compartments, indicating a reduction in NAD+ levels. Fluorescence was also monitored in cells expressing the cytoplasmic sensor using live microscopy (FIG. 15C). Treatment with FK866 began to decrease NAD+ levels in the majority of cells within 1 hour; by 3 hours pockets of NAD+ decreases were observed, which spread throughout the cytoplasm. […]
(§2) Live cell imaging was done on a fully motorized Nikon TiE stand with a Yokogawa W1 spinning disk confocal unit. […] Cells were excited at 488 nm and monitored with emission 525/25 nm. For each condition, at least 5 fields containing approximately 50-100 cells were used for quantification of pixel intensity using Metamorph software. […]

HEK293T = experiment: NAD+ depletion by FK866 in HEK293T lines expressing localized sensors, live flow cytometry; assay type: cell-based; conditions: 10 nM FK866, 18 hours; nuclear, cytoplasmic, mitochondrial sensors
Experimental: as §1, with “15C).” for “15C). Treatment with FK866 began to decrease NAD+ levels in the majority of cells within 1 hour; by 3 hours pockets of NAD+ decreases were observed, which spread throughout the cytoplasm.”
Data was collected on a special order BD LSRFortessa using 488-1 (Ex. 488 nm, Em. 525/50) and 405-2 (ex. 405 nm, Em. 515/20) for the sensor, and Ex. 561-3 (ex. 561, em 670/30) for PI intensity. Cells were gated to exclude debris, a standard doublet-exclusion was performed, and 1×10^4 fluorescent cells were evaluated per condition. Data were analyzed and plotted with FlowJo X. Sensor 488/405 ratiometric values were normalized to the appropriate cpVenus and experimental controls. […]

NAD+ sensor = molecular target: T1, NAD+ sensor (Enterococcus faecalis, UniProt Q837V6, D286N/K120L); experiment: Specificity of the sensor: fluorescence with related mononucleotides, dinucleotides and NAD+ precursors; assay type: binding; conditions: purified sensor
T1 construct: HA (N); made in house; host or cells: HEK293T
T1 sequence (Q837V6 other isoform, or with tags, fused parts or gaps K120L/D286N): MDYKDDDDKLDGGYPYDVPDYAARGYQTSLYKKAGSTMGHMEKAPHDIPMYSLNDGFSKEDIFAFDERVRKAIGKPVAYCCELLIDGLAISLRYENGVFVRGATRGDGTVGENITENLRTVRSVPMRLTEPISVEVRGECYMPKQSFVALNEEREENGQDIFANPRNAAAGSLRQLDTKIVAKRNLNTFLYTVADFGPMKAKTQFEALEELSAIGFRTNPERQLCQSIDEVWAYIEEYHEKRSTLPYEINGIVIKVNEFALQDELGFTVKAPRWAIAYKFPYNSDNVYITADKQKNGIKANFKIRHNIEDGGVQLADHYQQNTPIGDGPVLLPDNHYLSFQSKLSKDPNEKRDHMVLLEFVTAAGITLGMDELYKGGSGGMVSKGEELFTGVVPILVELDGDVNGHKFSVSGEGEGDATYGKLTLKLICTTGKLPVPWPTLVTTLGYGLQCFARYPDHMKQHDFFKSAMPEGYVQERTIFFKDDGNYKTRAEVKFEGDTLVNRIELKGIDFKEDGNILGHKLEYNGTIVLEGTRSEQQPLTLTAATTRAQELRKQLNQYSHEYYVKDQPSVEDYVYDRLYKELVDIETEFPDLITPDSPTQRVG
Experimental: To determine the specificity of the sensor for NAD+, sensor fluorescence was evaluated in the presence of related mononucleotides, dinucleotides, and NAD+ precursors (FIG. 14G). […] Thus, pH effects can be accommodated by normalizing to cpVenus. […] (FIG. 24A, 24B, 24C).
(§3) Steady-state fluorescence intensity measurements were performed using a Photon Technology International Quanta Master fluorimeter. Excitation spectra were monitored at 530 nm and emission spectra were measured by excitation at 488 nm and 405 nm. Slit widths used gave 8 nm bandpass for excitation and 44 nm bandpass for emission. Absorbance spectroscopy was performed on a Shimadzu 1601 spectrophotometer. Temperature was controlled with a water jacket and monitored using an Omega Thermistor.

HeLa cells [3] = experiment: NR in HeLa cells treated with siNAMPT, cytoplasmic sensor; assay type: cell-based; conditions: NR 1 mM, 24 hours
Experimental: In further experiments, siRNAs that target NAMPT were added to the cells (FIG. 15D). […] Importantly, nicotinamide riboside (NR) increased NAD+ levels in these cells through a parallel pathway that utilizes NR kinase to bypass NAMPT (Bieganowski P and Brenner C, Cell 117, 495-502 (2004); incorporated by reference herein) (FIG. 15E).
Live cell imaging was done on a fully motorized Nikon TiE stand with a Yokogawa W1 spinning disk confocal unit. Instrumentation for this project included a motorized stage in x and y for point-revisiting; z-axis control for fast piezo-based positioning and continuous focus-drift compensation for live cell imaging; dual-pinhole array for improved optical sectioning, a high powered Agilent laser launch; split simultaneous acquisition on two Andor Zyla 5.5 sCMOS cameras; and a 100×1.49 Apo TIRF objective. During imaging, cells were maintained in 5% CO2 at 34° C. Cells were excited at 488 nm and monitored with emission 525/25 nm. For each condition, at least 5 fields containing approximately 50-100 cells were used for quantification of pixel intensity using Metamorph software. The mean intensity per field of each siRNA was normalized to the scramble condition to obtain the normalized intensity measurement.

cytoplasmic sensor = molecular target: T2, cytoplasmic sensor (Enterococcus faecalis, UniProt Q837V6, D286N/K120L); experiment: NR effect on cytoplasmic sensor fluorescence when NMNAT2 was depleted; assay type: cell-based; conditions: NR 1 mM, 24 hours
T2 construct: expressed in transfected cells; HeLa cells were also used
T2 sequence (Q837V6 other isoform, or with tags, fused parts or gaps K120L/D286N): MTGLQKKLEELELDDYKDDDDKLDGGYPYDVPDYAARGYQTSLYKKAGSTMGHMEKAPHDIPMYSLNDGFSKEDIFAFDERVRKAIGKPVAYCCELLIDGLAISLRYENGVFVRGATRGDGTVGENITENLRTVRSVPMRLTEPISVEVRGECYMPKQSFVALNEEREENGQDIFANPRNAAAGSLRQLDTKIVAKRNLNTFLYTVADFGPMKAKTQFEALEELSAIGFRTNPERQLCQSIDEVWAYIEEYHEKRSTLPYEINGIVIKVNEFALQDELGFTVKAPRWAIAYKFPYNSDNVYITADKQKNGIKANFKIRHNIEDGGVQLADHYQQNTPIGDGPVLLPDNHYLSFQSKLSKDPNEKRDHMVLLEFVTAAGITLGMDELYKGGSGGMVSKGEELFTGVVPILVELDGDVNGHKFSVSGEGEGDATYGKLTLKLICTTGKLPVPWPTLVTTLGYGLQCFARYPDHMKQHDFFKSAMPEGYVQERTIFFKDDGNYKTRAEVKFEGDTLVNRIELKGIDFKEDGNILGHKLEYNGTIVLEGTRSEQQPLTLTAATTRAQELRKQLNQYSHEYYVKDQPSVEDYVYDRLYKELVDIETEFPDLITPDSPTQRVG
Text: FIG. 28 is a bar graph showing that Nicotinamide riboside (NR) has no direct effect on the fluorescence of the cytoplasmic sensor. The cytoplasmically-localized sensor reported a decrease of cytoplasmic NAD+ following depletion of NMNAT2.

HeLa cells [4] = experiment: NR rescue of mitochondrial NAD+ in HeLa cells depleted of NMNAT2; assay type: cell-based; conditions: NR 1 mM, 24 hours, NMNAT2 depletion
Text: To confirm this, HeLa cells, which contain very low levels of NMNAT3, were examined. […] Despite its low expression, NMNAT2 was active in HeLa cells, as its depletion decreased cytoplasmic NAD+ (FIG. 38). […] (FIG. 17B). This depletion was not rescued by addition of NR, implying that cytoplasmic NAD+, and not NMN, is responsible for maintaining mitochondrial NAD+ levels in HeLa cells (FIG. 17B). Thus, there appear to be multiple mechanisms for maintaining mitochondrial NAD+ in different cell types; conversion of NMN by NMNAT3 and active transport of cytoplasmic NAD+. An NAD+ transporter has been identified in bacteria (Haferkamp I et al, Nature 432, 622-625 (2004); incorporated by reference herein), yeast (Todisco S et al, J Biol Chem 281, 1524-1531 (2006); incorporated by reference herein), and plants (Palmieri F et al, J Biol Chem 284, 31249-31259 (2009); incorporated by reference herein), although a mammalian homologue has not yet been identified.
as §2

[5] = Competition for free NAD+ with GAPDH, sensor fluorescence in real time; assay type: binding; conditions: equimolar GAPDH, absence of substrate, 10 μM NAD+
Experimental: Fluorescence emission of […] purified sensor was monitored at 520 nm following excitation at 488 nm over time. Three 1-second exposures were obtained every 30 seconds at 20° C. in 100 mM HEPES pH7.4, 150 mM NaCl, 10 mM MgCl2. At the 240 timepoint, NAD+ was added to a final concentration of 10 μM; at the 600 second timepoint, full-length active human GAPDH (AbCam) was added to a final concentration of 11.7 μM. Fluorescence measurements were corrected for dilution factor. Mean±SD, n=2.

[6] = Fluorescence spectroscopy of purified sensor with NAD+ (cell free); assay type: binding; conditions: for effect of NAD+ on fluorescence (ex. 488 nm): purified protein, NAD+ concentrations up to 1 mM
Experimental: Fluorescence emission spectra were recorded using a PTI steady-state fluorescence spectrophotometer. Excitation spectra were captured at 530 nm while exciting from 350 to 515 nm. Emission spectra were measured by excitation at 405 nm or 488 nm while scanning the fluorescence intensity of 475 to 600 nm.
The sensors and controls were purified in batch format from mammalian HEK293T cells via their N-terminal Flag epitope tag, using anti-Flag M2 Affinity Gel (Sigma) and lysis buffer (50 mM Tris pH 7.4, 150 mM NaCl, 1 mM EDTA, 10 mM NaF, 0.5% NP-40, 1 mM DTT, and Complete Protease Inhibitor cocktail). Protein was eluted with 500 μg/mL 3× Flag peptide and dialyzed against 100 mM Tris pH 7.4, 150 mM NaCl, 0.5 mM DTT, 100 μM PMSF, 1 mM EDTA, and 50% glycerol. Bradford assays were used to quantify the concentration in each batch and aliquots were flash frozen in liquid nitrogen for storage at −80° C.
as §3

[7] = Calibration of cytoplasmic sensor in digitonin permeabilized HEK293T cells, flow cytometry; assay type: cell-based
Experimental: The free NAD+ concentration in the nucleus and cytoplasm has been debated. To calibrate the sensor, cells were permeabilized with digitonin to allow internal NAD+ levels to equilibrate with concentrations external to the cell and fluorescence monitored by flow cytometry. Equilibration was assessed using propidium iodide (PI), whose molecular weight is similar to that of NAD+ (FIG. 29). […] The mean of the fluorescence ratio (488/405 nm) for the cytoplasmic sensor in non-permeabilized HEK293T cells relative to cpVenus was interpolated to reveal a free NAD+ value of 105.8 μM (95% Cl, 92.3 μM to 121.7 μM). […] To confirm these calculations, flow cytometry was used to examine the fluorescence of the cytoplasmic sensor in populations of HeLa cells that were partially permeabilized (FIG. 16B). When equilibrated with either 500 μM or 1 mM NAD+, cytoplasmic fluorescence of the permeabilized cell population decreased, indicating an increase in NAD+. In contrast, equilibration with media containing no external NAD+ increased fluorescence, likely due to NAD+ diffusion. […]
Data was collected on a special order BD LSRFortessa using 488-1 (Ex. 488 nm, Em. 525/50) and 405-2 (ex. 405 nm, Em. 515/20) for the sensor, and Ex. 561-3 (ex. 561, em 670/30) for PI intensity. Cells were gated to exclude debris, a standard doublet-exclusion was performed, and 1×10^4 fluorescent cells were evaluated per condition. […]

[8] = Fluorescence lifetime measurements of the sensor; conditions: 488 nm excitation
Experimental: Fluorescence lifetime measurements were performed on a PicoQuant FluoTime 200 time correlated single photon counting instrument (PicoQuant, Berlin), outfitted with a Hamamatsu micro-channel plate detector. Decays were measured with the polarizers at the magic angle and with 16 nm bandpass emission slits. […] Emission from the samples was collected at 525 nm, with an additional 520 nm long-pass filter on the detector side of the sample. The fluorescence decays were fit by means of PicoQuant software, using an exponential decay model [I(t)=Σi-1^nAie^−t/τ^i] where A, is the amplitude of the i^th component, in counts, in the first range fitting channel and τi is the lifetime of the i^th component.

[9] = NAD+ washout (reversibility of binding to purified sensor); conditions: 500 μM NAD+, elution over buffer exchange column
Experimental: Purified sensor (2 μM) was incubated with either 0μ or 500 μM NAD+ in a total of 75 μL and evaluated for its fluorescence excitation and emission spectra. Each sample was then passed over a pre-equilibrated (50 mM Tris pH 7.4, 150 mM NaCl) micro buffer exchange column (Biorad microbiospin P30), washed, and eluted in […] buffer volume for reevaluation of fluorescence.

O=C(/C=C/c1cccnc1)NCCCCC1CCN(C(=O)c2ccccc2)CC1 [FK866]
NAD+ recovered by HPLC (HEK293T cells [1]): depleted
time at which NAD+ levels began to decrease in the majority of cells (HEK293T cells [2]): ≤ 1 h
sensor fluorescence in all compartments (indicating reduction in NAD+ levels) (HEK293T): increased

NC(=O)c1ccc[n+]([C@@H]2O[C@H](COP(=O)([O-])OP(=O)(O)OC[C@H]3O[C@@H](n4cnc5c(N)ncnc54)[C@H](O)[C@@H]3O)[C@@H](O)[C@H]2O)c1 [NAD+, nicotinamide adenine dinucleotide]
effect of substrate on sensor fluorescence / recognition by the sensor (NAD+ sensor): decreased sensor fluorescence

NC(=O)c1ccc[n+]([C@@H]2O[C@H](CO)[C@@H](O)[C@H]2O)c1 [NR, nicotinamide riboside]
NAD+ levels (HeLa cells [3]): increased
nonspecific effect on sensor fluorescence (cytoplasmic sensor): did not alter
rescue of decreased mitochondrial NAD+ (HeLa cells [4]): not rescued
effect of substrate on sensor fluorescence / recognition by the sensor (NAD+ sensor): not recognized

GAPDH: full-length active human glyceraldehyde 3-phosphate dehydrogenase (AbCam)
sensor fluorescence upon GAPDH addition [5]: almost immediate recovery of fluorescence

cpVenus: circularly permuted version of Venus fluorescent protein, control
effect of NAD+ on fluorescence (ex. 488 nm) [6]: minimally affected
effect of NAD+ on fluorescence in permeabilized cells [7]: minimally affected

sensor: NAD+ biosensor polypeptide: FLAG, HA, LigA 78-317 fragment, cpVenus, linker, LigA 2-70 fragment
change in the Kd value with temperature ([6]; between 20-37° C.): no significant changes
Kd ([6]; in vitro, purified sensor, 488 nm, read-out: apparent Kd(NAD+)): ~65 µM
NAD+-dependent responses across pH ([6]; pH 6.5-8.0): similar
effect of NAD+ on fluorescence (ex. 488 nm) [6]: decreased
effect of NAD+ binding on second excitation peak at 405 nm ([6]; purified sensor): unaffected
effect of NAD+ on fluorescence lifetime [8]: did not affect
reversibility of NAD+ binding [9]: reversible

From US10392649B2, “Biosensors that detect NAD+” (Oregon Health & Science University, priority 2014, dated 2019)
